Reference: PMC7529893, “Structural basis for substrate recognition and chemical inhibition of oncogenic MAGE ubiquitin ligases” (Nature Communications, 2020)

Biological target: T1, MAGE-A11:PCF11 interaction (GST-MAGE-A11 and FAM-PCF11_4) (Homo sapiens, UniProt P43364)
T1 construct: GST-MAGE-A11 MHD (human MAGE-A11 MHD amino acid 218-429); made in house; host or cells: E. coli BL21(DE3)
T1 sequence (P43364 218-429): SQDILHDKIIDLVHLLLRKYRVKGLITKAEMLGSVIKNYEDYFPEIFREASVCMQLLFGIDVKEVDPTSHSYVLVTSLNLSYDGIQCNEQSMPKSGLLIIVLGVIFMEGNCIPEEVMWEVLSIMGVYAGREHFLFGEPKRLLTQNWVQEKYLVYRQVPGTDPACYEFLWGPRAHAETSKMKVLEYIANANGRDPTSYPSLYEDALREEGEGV
Assay: TR-FRET primary / single point screen at 15 µM
Format: binding
In short: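 Single-point screen at 15 µM final compound in 50 mM Tris pH 7.5, 20 mM MgCl2, 0.1 mg/ml BSA, 1 mM DTT, with 200 nM FAM-PCF11_4, 5 nM Tb-anti-GST and 5 nM GST-MAGE-A11. After 90 min at room temperature, the 520/490 nm TR-FRET ratio (340 nm excitation) gave %Inhibition against no-MAGE-A11 and DMSO controls.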

[1] = single point TR-FRET screening of 797 quinoline compounds against MAGE-A11:PCF11
[2] = single point TR-FRET screening of quinoline compounds against MAGE-A11:PCF11, 15 µM

CCN1CCN(c2c(S(=O)(=O)c3ccc(C)c(C)c3)cnc3ccc(F)cc23)CC1 [SJ000247345]
percent inhibition (TR-FRET) [1]: 1.118

CN(C)CCCNc1c2ccccc2nc2ccccc12 [SJ000044378]
percent inhibition (TR-FRET) [2]: 16.7674

Clc1ccc2c(NCCCN(Cc3ccccc3)Cc3c[nH]c4ccccc34)ccnc2c1 [SJ000520433]
percent inhibition (TR-FRET) [2]: 40.1907

CCCN(CCCNc1ccnc2cc(C(F)(F)F)ccc12)Cc1cc(Br)cs1 [SJ000520478]
percent inhibition (TR-FRET) [2]: -9.243

CCCN(CCCNc1ccnc2cc(Cl)ccc12)Cc1c(C)n(C)n(-c2ccccc2)c1=O [SJ000522755]
percent inhibition (TR-FRET) [2]: 13.6386

CCCN(CCCNc1ccnc2cc(C(F)(F)F)ccc12)Cc1ccccc1[N+](=O)[O-] [SJ000523071]
percent inhibition (TR-FRET) [2]: -7.745

Clc1cccc(-c2ccc(CNCCCNc3ccnc4cc(Cl)ccc34)o2)c1 [SJ000523069]
percent inhibition (TR-FRET) [2]: 33.5128

CCC(CC)CNCCCNc1ccnc2cc(C(F)(F)F)ccc12 [SJ000361111]
percent inhibition (TR-FRET) [2]: 24.3255

FC(F)(F)c1cccc(Cc2ccc3c(NCCCNCc4ccco4)ccnc3c2)c1 [SJ000311298]
percent inhibition (TR-FRET) [2]: 27.0086

O=C(C[C@H]1CC[C@]2(CC1)OO[C@]1(O2)C2CC3CC(C2)CC1C3)NCCCNc1ccnc2cc(Cl)ccc12 [SJ000578380]
percent inhibition (TR-FRET) [2]: 28.4789

O=S(=O)(c1ccc(Cl)cc1)N1CCN(c2ccnc3cc(Cl)ccc23)CC1 [SJ000204656]
percent inhibition (TR-FRET) [1]: -34.3905

CCCN(CCCNc1ccnc2cc(Cl)ccc12)Cc1c[nH]c2ccccc12 [SJ000523007]
percent inhibition (TR-FRET) [2]: 26.2256

Clc1ccc2c(NCCCCN(Cc3ccccc3)CC3CCCCC3)ccnc2c1 [SJ000361194]
percent inhibition (TR-FRET) [1]: 41.9261

CCCN(CCCNc1ccnc2cc(Cl)ccc12)CCC(C)c1ccccc1 (stereo not shown) [SJ000357573]
percent inhibition (TR-FRET) [2]: 24.9781

COc1ccc(Oc2ccc3c(NCCCNCc4ccco4)ccnc3c2)cc1 [SJ000311218]
percent inhibition (TR-FRET) [2]: 36.2507

COc1ccc(N2CCN(c3c(S(=O)(=O)c4ccc(C)cc4)cnc4ccc(Cl)cc34)CC2)cc1 [SJ000117072]
percent inhibition (TR-FRET) [1]: -5.838

CCCCCN(CCC)CCCNc1c2ccc(Cl)cc2nc2ccc(OC)cc12 [SJ000520941]
percent inhibition (TR-FRET) [1]: -210.345

CN1CCN(c2c(S(=O)(=O)c3ccc(Cl)cc3)cnc3ccccc23)CC1 [SJ000247306]
percent inhibition (TR-FRET) [1]: -10.1441

CCCN(CCCNc1ccnc2cc(Cl)ccc12)Cc1c[nH]c2ccc(F)cc12 [SJ000522992]
percent inhibition (TR-FRET) [2]: 29.3392

Cc1csc(CN(CCCNc2ccnc3cc(Cl)ccc23)Cc2ccccc2)n1 [SJ000520463]
percent inhibition (TR-FRET) [2]: -10.469

CCCN(CCCNc1ccnc2cc(Cl)ccc12)Cc1ccc(CC)cc1 [SJ000523001]
percent inhibition (TR-FRET) [2]: 30.1342

CCCN(CCC)CCCNc1ccnc2cc(C(F)(F)F)ccc12 [SJ000361250]
percent inhibition (TR-FRET) [2]: 15.6779

COc1cccc(CN2CCC(Nc3ccnc4cc(Cl)ccc34)CC2)c1 [SJ000523107]
percent inhibition (TR-FRET) [1]: 3.1492

COc1ccc2ncc(S(=O)(=O)c3ccc(C)c(C)c3)c(N3CCN(c4ccccc4)CC3)c2c1 [SJ000117051]
percent inhibition (TR-FRET) [1]: -52.476

CCCN(CCCNc1c2ccc(Cl)cc2nc2ccc(OC)cc12)Cc1ccc2[nH]ccc2c1 [SJ000522732]
percent inhibition (TR-FRET) [2]: 39.4714

CCCN(CCCNc1ccnc2cc(C(F)(F)F)ccc12)Cc1cn(C)c2ccccc12 [SJ000520469]
percent inhibition (TR-FRET) [2]: 25.5382

COc1ccc(CN(CCCCNc2ccnc3cc(Cl)ccc23)Cc2ccccc2)cc1F [SJ000520438]
percent inhibition (TR-FRET) [1]: 13.1455

COc1ccc(S(=O)(=O)c2cnc3cc(OC)c(OC)cc3c2N2CCN(C)CC2)cc1 [SJ000083955]
percent inhibition (TR-FRET) [1]: 0.8227

CCCN(CCCNc1c2ccc(Cl)cc2nc2ccc(OC)cc12)Cc1cc(Br)cs1 [SJ000522989]
percent inhibition (TR-FRET) [2]: -56.7027

Cc1ccc(CNCCCNc2ccnc3cc(Cl)ccc23)o1 [SJ000311326]
percent inhibition (TR-FRET) [2]: 10.2048

CCCN(CCCNc1c2ccc(Cl)cc2nc2ccc(OC)cc12)Cc1nccn1C [SJ000522973]
percent inhibition (TR-FRET) [1]: -159.863

COc1ccc2nc3cc(Cl)ccc3c(NCCCNCc3cc(C(F)(F)F)ccc3OC)c2c1 [SJ000521002]
percent inhibition (TR-FRET) [1]: -290.163

CCCN(CCCNc1ccnc2cc(C(F)(F)F)ccc12)Cc1cc2ccccc2o1 [SJ000520479]
percent inhibition (TR-FRET) [2]: -20.4102

CCCN(CCCNc1c2ccc(Cl)cc2nc2ccc(OC)cc12)CC1CC1 [SJ000520936]
percent inhibition (TR-FRET) [1]: -271.356

Clc1ccc2c(NCCCCN(Cc3ccccc3)Cc3ccc(Br)s3)ccnc2c1 [SJ000312688]
percent inhibition (TR-FRET) [1]: 22.0375

COc1ccc2ncc(S(=O)(=O)c3ccccc3)c(N3CCN(c4ccc(F)cc4)CC3)c2c1 [SJ000083978]
percent inhibition (TR-FRET) [1]: -133.117

CCc1ccc(S(=O)(=O)c2cnc3ccccc3c2N2CCN(C)CC2)cc1 [SJ000278939]
percent inhibition (TR-FRET) [1]: 11.585

Clc1ccc2c(NCCCN(Cc3ccccc3)Cc3cccc4ccccc34)ccnc2c1 [SJ000361181]
percent inhibition (TR-FRET) [2]: 26.2256

O=S(=O)(c1ccccc1)c1cnc2ccc(F)cc2c1N1CCN(Cc2ccccc2)CC1 [SJ000247257]
percent inhibition (TR-FRET) [1]: -62.2806

Cc1cccc(N2CCN(c3c(S(=O)(=O)c4ccccc4)cnc4ccccc34)CC2)c1C [SJ000117081]
percent inhibition (TR-FRET) [1]: -13.1252

CC(C)(C)CCNCCCNc1ccnc2cc(C(F)(F)F)ccc12 [SJ000521053]
percent inhibition (TR-FRET) [2]: 27.3587

COc1ccc(N2CCN(c3c(S(=O)(=O)c4ccccc4)cnc4ccc(OC)cc34)CC2)cc1 [SJ000117071]
percent inhibition (TR-FRET) [1]: -32.6681

Clc1ccc2c(NCCCN(Cc3ccccc3)Cc3ccco3)ccnc2c1 [SJ000312668]
percent inhibition (TR-FRET) [2]: 0.5217

FC(F)(F)c1ccc2c(NCCCNCc3cc(Br)cs3)ccnc2c1 [SJ000521056]
percent inhibition (TR-FRET) [2]: 32.7178

CCCN(CCCNc1ccnc2cc(C(F)(F)F)ccc12)Cc1cccc2ccccc12 [SJ000523074]
percent inhibition (TR-FRET) [2]: 14.3161

CCCN(CCCNc1ccnc2cc(C(F)(F)F)ccc12)Cc1scnc1C [SJ000575179]
percent inhibition (TR-FRET) [2]: 5.164

CC(=O)Nc1ccc(S(=O)(=O)N2CCN(c3ccnc4cc(Cl)ccc34)CC2)cc1 [SJ000193862]
percent inhibition (TR-FRET) [1]: -16.1911

CCc1ccc2ncc(S(=O)(=O)c3ccccc3)c(N3CCN(C)CC3)c2c1 [SJ000083946]
percent inhibition (TR-FRET) [1]: -6.249

CCCN(CCCNc1c2ccc(Cl)cc2nc2ccc(OC)cc12)Cc1ccc(Br)s1 [SJ000520924]
percent inhibition (TR-FRET) [2]: -56.4502

CCCN(CCCNc1c2ccc(Cl)cc2nc2ccc(OC)cc12)Cc1ccccc1OC(F)(F)F [SJ000522961]
percent inhibition (TR-FRET) [2]: 22.6913

Cc1cccc(CN2CCC(Nc3ccnc4cc(Cl)ccc34)CC2)c1 [SJ000523101]
percent inhibition (TR-FRET) [1]: 18.5377

CCCNCCCNc1ccnc2cc(Cl)ccc12 [SJ000361119]
percent inhibition (TR-FRET) [2]: 9.7847

CCCCCN(CCC)CCCNc1ccnc2cc(Cl)ccc12 [SJ000522754]
percent inhibition (TR-FRET) [2]: 16.2885

CCCN(CCCNc1c2ccc(Cl)cc2nc2ccc(OC)cc12)Cc1ccc(C)o1 [SJ000520932]
percent inhibition (TR-FRET) [2]: 0.9854

Cc1ccc(CN(CCCCNc2ccnc3cc(Cl)ccc23)Cc2ccccc2)s1 [SJ000312687]
percent inhibition (TR-FRET) [1]: 20.7072

COc1ccc(-c2ccc3c(NCCCNCc4ccco4)ccnc3c2)cc1 [SJ000311294]
percent inhibition (TR-FRET) [2]: 7.824

COc1ccc(OC(F)(F)F)cc1CN(CCCCNc1ccnc2cc(Cl)ccc12)Cc1ccccc1 [SJ000520447]
percent inhibition (TR-FRET) [1]: 26.6585

CCOc1ccc2ncc(S(=O)(=O)c3ccc(Cl)cc3)c(N3CCN(CC)CC3)c2c1 [SJ000083969]
percent inhibition (TR-FRET) [1]: -4.989

COc1ccc(N2CCN(c3c(S(=O)(=O)c4ccc(Cl)cc4)cnc4ccc(C)cc34)CC2)cc1 [SJ000117075]
percent inhibition (TR-FRET) [1]: -3.122

CCN(CC)CC(=O)Nc1c2c(nc3ccccc13)N(C)CC2 [SJ000331537]
percent inhibition (TR-FRET) [1]: 11.7837

CCOC(=O)c1cnc2ccc(OCC)cc2c1NCCN(C)C [SJ000027288]
percent inhibition (TR-FRET) [1]: 10.6575

COc1ccc2nc3cc(Cl)ccc3c(NCCCNCc3ccc(N(C)C)c4ccccc34)c2c1 [SJ000523028]
percent inhibition (TR-FRET) [2]: -1.532

CCC(C)CNCCCNc1ccnc2cc(C(F)(F)F)ccc12 (stereo not shown) [SJ000361112]
percent inhibition (TR-FRET) [2]: 18.4697

COc1ccc(O)c(CN2CCC(Nc3ccnc4cc(Cl)ccc34)CC2)c1 [SJ000357527]
percent inhibition (TR-FRET) [1]: 7.779
